According to PubChem BioAssay (NCI):
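Test compounds were applied to cells in 96-well plates for 48 hours at 5 doses. Abbreviation: GI50, concentration required for 50% inhibition of growth. The concentration for full growth arrest is given as TGI.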

Tests used:
Test in all cases: growth of human tumour cells (NCI), 48 h
A549 NSCLC = test system: A549 NSCLC
NCI-H23 lung = test system: NCI-H23 lung
UACC-62 melanoma = test system: UACC-62 melanoma
SW-620 colon = test system: SW-620 colon
IGROV1 ovarian = test system: IGROV1 ovarian
NCI-H460 lung = test system: NCI-H460 lung
MOLT-4 leukemia = test system: MOLT-4 leukemia
CAKI-1 renal = test system: CAKI-1 renal
T-47D breast = test system: T-47D breast
HOP-62 NSCLC = test system: HOP-62 NSCLC
SF-268 CNS = test system: SF-268 CNS
K-562 leukemia = test system: K-562 leukemia
HL-60(TB) leukemia = test system: HL-60(TB) leukemia
PC-3 prostate = test system: PC-3 prostate
OVCAR-3 ovarian = test system: OVCAR-3 ovarian
UACC-257 melanoma = test system: UACC-257 melanoma
SN12C renal = test system: SN12C renal
SF-295 CNS = test system: SF-295 CNS
NCI-H226 lung = test system: NCI-H226 lung
NCI/ADR-RES ovarian = test system: NCI/ADR-RES ovarian
MCF7 breast = test system: MCF7 breast
UO-31 renal = test system: UO-31 renal
786-0 renal = test system: 786-0 renal
HCT-116 colon = test system: HCT-116 colon
DU-145 prostate = test system: DU-145 prostate
SK-MEL-28 melanoma = test system: SK-MEL-28 melanoma
OVCAR-8 ovarian = test system: OVCAR-8 ovarian
M14 melanoma = test system: M14 melanoma
LOX IMVI melanoma = test system: LOX IMVI melanoma
SK-OV-3 ovarian = test system: SK-OV-3 ovarian
EKVX NSCLC = test system: EKVX NSCLC
HCC-2998 colon = test system: HCC-2998 colon
CCRF-CEM leukemia = test system: CCRF-CEM leukemia
RXF 393 renal = test system: RXF 393 renal
TK-10 renal = test system: TK-10 renal
COLO 205 colon = test system: COLO 205 colon
A498 renal = test system: A498 renal
HS 578T breast = test system: HS 578T breast
HCT-15 colon = test system: HCT-15 colon
SR leukemia = test system: SR leukemia
KM12 colon = test system: KM12 colon
OVCAR-4 ovarian = test system: OVCAR-4 ovarian
NCI-H522 lung = test system: NCI-H522 lung
SK-MEL-2 melanoma = test system: SK-MEL-2 melanoma
U251 CNS = test system: U251 CNS
RPMI-8226 leukemia = test system: RPMI-8226 leukemia
SF-539 CNS = test system: SF-539 CNS
OVCAR-5 ovarian = test system: OVCAR-5 ovarian
MALME-3M melanoma = test system: MALME-3M melanoma
BT-549 breast = test system: BT-549 breast
SNB-19 CNS = test system: SNB-19 CNS
SK-MEL-5 melanoma = test system: SK-MEL-5 melanoma
HT29 colon = test system: HT29 colon
HOP-92 NSCLC = test system: HOP-92 NSCLC
MDA-MB-231 breast = test system: MDA-MB-231 breast

Work on `O=C(O)CCCn1c(SCc2c(Cl)cccc2Cl)nc2ccsc2c1=O` yielded a GI50 (A549 NSCLC) of 0.715 µM, a TGI (A549 NSCLC) of over 100 µM and a GI50 (NCI-H23 lung) of 0.587 µM. For the same compound, the TGI (NCI-H23 lung) was over 100 µM, the GI50 (UACC-62 melanoma) was 0.185 µM and the TGI (UACC-62 melanoma) was 34.2 µM. The GI50 (SW-620 colon) was 0.407 µM, the TGI (SW-620 colon) was over 100 µM and the GI50 (IGROV1 ovarian) was 1.35 µM. For the same compound, the TGI (IGROV1 ovarian) was over 100 µM, the GI50 (NCI-H460 lung) was 0.419 µM and the TGI (NCI-H460 lung) was over 100 µM. The GI50 (MOLT-4 leukemia) was 0.44 µM, the TGI (MOLT-4 leukemia) was over 100 µM and the GI50 (CAKI-1 renal) was 0.452 µM. For the same compound, the TGI (CAKI-1 renal) was over 100 µM, the GI50 (T-47D breast) was 0.482 µM and the TGI (T-47D breast) was over 100 µM. The GI50 (HOP-62 NSCLC) was 0.819 µM, the TGI (HOP-62 NSCLC) was over 100 µM and the GI50 (SF-268 CNS) was 0.83 µM. For the same compound, the TGI (SF-268 CNS) was over 100 µM, the GI50 (K-562 leukemia) was 0.272 µM and the TGI (K-562 leukemia) was over 100 µM. For the same compound, the GI50 (HL-60(TB) leukemia) was 0.284 µM, the TGI (HL-60(TB) leukemia) was 12 µM and the GI50 (PC-3 prostate) was 0.354 µM. It also gave a TGI (PC-3 prostate) of over 100 µM, a GI50 (OVCAR-3 ovarian) of 0.206 µM and a TGI (OVCAR-3 ovarian) of 1.62 µM. It also gave a GI50 (UACC-257 melanoma) of 58.7 µM, a TGI (UACC-257 melanoma) of over 100 µM and a GI50 (SN12C renal) of 0.661 µM. For the same compound, the TGI (SN12C renal) was over 100 µM, the GI50 (SF-295 CNS) was 0.376 µM and the TGI (SF-295 CNS) was over 100 µM. For the same compound, the GI50 (NCI-H226 lung) was 0.685 µM, the TGI (NCI-H226 lung) was over 100 µM and the GI50 (NCI/ADR-RES ovarian) was 0.276 µM. For the same compound, the TGI (NCI/ADR-RES ovarian) was over 100 µM, the GI50 (MCF7 breast) was 0.263 µM and the TGI (MCF7 breast) was over 100 µM. For the same compound, the GI50 (UO-31 renal) was 0.478 µM, the TGI (UO-31 renal) was over 100 µM and the GI50 (786-0 renal) was 0.399 µM. It also gave a TGI (786-0 renal) of 32.9 µM, a GI50 (HCT-116 colon) of 0.432 µM and a TGI (HCT-116 colon) of over 100 µM. It also gave a GI50 (DU-145 prostate) of 0.479 µM, a TGI (DU-145 prostate) of over 100 µM and a GI50 (SK-MEL-28 melanoma) of 0.698 µM. The TGI (SK-MEL-28 melanoma) was over 100 µM, the GI50 (OVCAR-8 ovarian) was 0.828 µM and the TGI (OVCAR-8 ovarian) was over 100 µM. It also gave a GI50 (M14 melanoma) of 0.366 µM, a TGI (M14 melanoma) of over 100 µM and a GI50 (LOX IMVI melanoma) of 0.509 µM. The TGI (LOX IMVI melanoma) was over 100 µM, the GI50 (SK-OV-3 ovarian) was 0.71 µM and the TGI (SK-OV-3 ovarian) was over 100 µM. The GI50 (EKVX NSCLC) was 4.52 µM, the TGI (EKVX NSCLC) was over 100 µM and the GI50 (HCC-2998 colon) was 1.85 µM. For the same compound, the TGI (HCC-2998 colon) was 23.2 µM, the GI50 (CCRF-CEM leukemia) was 0.377 µM and the TGI (CCRF-CEM leukemia) was over 100 µM. For the same compound, the GI50 (RXF 393 renal) was 0.306 µM, the TGI (RXF 393 renal) was 2.78 µM and the GI50 (TK-10 renal) was 26.2 µM. For the same compound, the TGI (TK-10 renal) was over 100 µM, the GI50 (COLO 205 colon) was 0.384 µM and the TGI (COLO 205 colon) was 10.8 µM. The GI50 (A498 renal) was 0.311 µM, the TGI (A498 renal) was over 100 µM and the GI50 (HS 578T breast) was 0.434 µM. For the same compound, the TGI (HS 578T breast) was over 100 µM, the GI50 (HCT-15 colon) was 0.321 µM and the TGI (HCT-15 colon) was over 100 µM. It also gave a GI50 (SR leukemia) of 0.316 µM, a TGI (SR leukemia) of over 100 µM and a GI50 (KM12 colon) of 0.321 µM. The TGI (KM12 colon) was over 100 µM, the GI50 (OVCAR-4 ovarian) was 7.99 µM and the TGI (OVCAR-4 ovarian) was over 100 µM. The GI50 (NCI-H522 lung) was 0.205 µM, the TGI (NCI-H522 lung) was 32.2 µM and the GI50 (SK-MEL-2 melanoma) was 0.386 µM. It also gave a TGI (SK-MEL-2 melanoma) of over 100 µM, a GI50 (U251 CNS) of 0.529 µM and a TGI (U251 CNS) of over 100 µM. For the same compound, the GI50 (RPMI-8226 leukemia) was 0.489 µM, the TGI (RPMI-8226 leukemia) was over 100 µM and the GI50 (SF-539 CNS) was 0.26 µM. It also gave a TGI (SF-539 CNS) of 0.943 µM, a GI50 (OVCAR-5 ovarian) of 5.74 µM and a TGI (OVCAR-5 ovarian) of over 100 µM. It also gave a GI50 (MALME-3M melanoma) of 0.336 µM, a TGI (MALME-3M melanoma) of over 100 µM and a GI50 (BT-549 breast) of 0.459 µM. It also gave a TGI (BT-549 breast) of over 100 µM, a GI50 (SNB-19 CNS) of 0.517 µM and a TGI (SNB-19 CNS) of over 100 µM. The GI50 (SK-MEL-5 melanoma) was 0.283 µM, the TGI (SK-MEL-5 melanoma) was 57.3 µM and the GI50 (HT29 colon) was 0.448 µM. It also gave a TGI (HT29 colon) of over 100 µM, a GI50 (HOP-92 NSCLC) of 0.236 µM and a TGI (HOP-92 NSCLC) of over 100 µM. It also gave a GI50 (MDA-MB-231 breast) of 0.774 µM and a TGI (MDA-MB-231 breast) of 50.9 µM.
